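These data come from cells grown in 96-well plates and exposed to compound for 48 hours at five concentrations. At the TGI there is no net growth.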
How the values were obtained:
Assay in all cases: inhibition of tumour cell growth, NCI panel, 48 h
SK-OV-3 ovarian = test system: SK-OV-3 ovarian
CCRF-CEM leukemia = test system: CCRF-CEM leukemia
MOLT-4 leukemia = test system: MOLT-4 leukemia
SN12C renal = test system: SN12C renal
HS 578T breast = test system: HS 578T breast
MDA-MB-435 = test system: MDA-MB-435
OVCAR-3 ovarian = test system: OVCAR-3 ovarian
RPMI-8226 leukemia = test system: RPMI-8226 leukemia
NCI-H23 lung = test system: NCI-H23 lung
786-0 renal = test system: 786-0 renal
U251 CNS = test system: U251 CNS
SF-268 CNS = test system: SF-268 CNS
UACC-62 melanoma = test system: UACC-62 melanoma
HOP-62 NSCLC = test system: HOP-62 NSCLC
MDA-N = test system: MDA-N
A549 NSCLC = test system: A549 NSCLC
LOX IMVI melanoma = test system: LOX IMVI melanoma
HT29 colon = test system: HT29 colon
OVCAR-4 ovarian = test system: OVCAR-4 ovarian
PC-3 prostate = test system: PC-3 prostate
M14 melanoma = test system: M14 melanoma
SF-295 CNS = test system: SF-295 CNS
K-562 leukemia = test system: K-562 leukemia
SW-620 colon = test system: SW-620 colon
OVCAR-5 ovarian = test system: OVCAR-5 ovarian
IGROV1 ovarian = test system: IGROV1 ovarian
NCI/ADR-RES ovarian = test system: NCI/ADR-RES ovarian
HCT-15 colon = test system: HCT-15 colon
HL-60(TB) leukemia = test system: HL-60(TB) leukemia
NCI-H522 lung = test system: NCI-H522 lung
ACHN renal = test system: ACHN renal
UACC-257 melanoma = test system: UACC-257 melanoma
HCT-116 colon = test system: HCT-116 colon
SNB-75 CNS = test system: SNB-75 CNS
TK-10 renal = test system: TK-10 renal
SK-MEL-5 melanoma = test system: SK-MEL-5 melanoma
HCC-2998 colon = test system: HCC-2998 colon
NCI-H226 lung = test system: NCI-H226 lung
EKVX NSCLC = test system: EKVX NSCLC
SF-539 CNS = test system: SF-539 CNS
SR leukemia = test system: SR leukemia
COLO 205 colon = test system: COLO 205 colon
BT-549 breast = test system: BT-549 breast
MALME-3M melanoma = test system: MALME-3M melanoma
DU-145 prostate = test system: DU-145 prostate
MCF7 breast = test system: MCF7 breast
CAKI-1 renal = test system: CAKI-1 renal
UO-31 renal = test system: UO-31 renal
SK-MEL-2 melanoma = test system: SK-MEL-2 melanoma
MDA-MB-231 breast = test system: MDA-MB-231 breast
KM12 colon = test system: KM12 colon
A498 renal = test system: A498 renal
OVCAR-8 ovarian = test system: OVCAR-8 ovarian
T-47D breast = test system: T-47D breast
RXF 393 renal = test system: RXF 393 renal
SNB-19 CNS = test system: SNB-19 CNS
SK-MEL-28 melanoma = test system: SK-MEL-28 melanoma
NCI-H460 lung = test system: NCI-H460 lung
HOP-92 NSCLC = test system: HOP-92 NSCLC

SMILES: CC(=O)N(CCc1ccccc1)C(C#N)c1ccccc1 (stereo not given)
- TGI (SK-OV-3 ovarian): > 100 µM
- TGI (CCRF-CEM leukemia): > 100 µM
- TGI (MOLT-4 leukemia): > 100 µM
- TGI (SN12C renal): > 100 µM
- TGI (HS 578T breast): > 100 µM
- TGI (MDA-MB-435): > 100 µM
- TGI (OVCAR-3 ovarian): > 100 µM
- TGI (RPMI-8226 leukemia): > 100 µM
- TGI (NCI-H23 lung): > 100 µM
- TGI (786-0 renal): > 100 µM
- TGI (U251 CNS): > 100 µM
- TGI (SF-268 CNS): > 100 µM
- TGI (UACC-62 melanoma): > 100 µM
- TGI (HOP-62 NSCLC): > 100 µM
- TGI (MDA-N): > 100 µM
- TGI (A549 NSCLC): > 100 µM
- TGI (LOX IMVI melanoma): > 100 µM
- TGI (HT29 colon): > 100 µM
- TGI (OVCAR-4 ovarian): > 100 µM
- TGI (PC-3 prostate): > 100 µM
- TGI (M14 melanoma): > 100 µM
- TGI (SF-295 CNS): > 100 µM
- TGI (K-562 leukemia): > 100 µM
- TGI (SW-620 colon): > 100 µM
- TGI (OVCAR-5 ovarian): > 100 µM
- TGI (IGROV1 ovarian): > 100 µM
- TGI (NCI/ADR-RES ovarian): > 100 µM
- TGI (HCT-15 colon): > 100 µM
- TGI (HL-60(TB) leukemia): > 100 µM
- TGI (NCI-H522 lung): > 100 µM
- TGI (ACHN renal): > 100 µM
- TGI (UACC-257 melanoma): > 100 µM
- TGI (HCT-116 colon): > 100 µM
- TGI (SNB-75 CNS): > 100 µM
- TGI (TK-10 renal): > 100 µM
- TGI (SK-MEL-5 melanoma): > 100 µM
- TGI (HCC-2998 colon): > 100 µM
- TGI (NCI-H226 lung): > 100 µM
- TGI (EKVX NSCLC): > 100 µM
- TGI (SF-539 CNS): > 100 µM
- TGI (SR leukemia): > 100 µM
- TGI (COLO 205 colon): > 100 µM
- TGI (BT-549 breast): > 100 µM
- TGI (MALME-3M melanoma): > 100 µM
- TGI (DU-145 prostate): > 100 µM
- TGI (MCF7 breast): > 100 µM
- TGI (CAKI-1 renal): > 100 µM
- TGI (UO-31 renal): > 100 µM
- TGI (SK-MEL-2 melanoma): > 100 µM
- TGI (MDA-MB-231 breast): > 100 µM
- TGI (KM12 colon): > 100 µM
- TGI (A498 renal): > 100 µM
- TGI (OVCAR-8 ovarian): > 100 µM
- TGI (T-47D breast): > 100 µM
- TGI (RXF 393 renal): > 100 µM
- TGI (SNB-19 CNS): > 100 µM

SMILES: CN1CCc2c(sc3ncn(C)c(=N)c23)C1
- TGI (SK-OV-3 ovarian): > 100 µM
- TGI (CCRF-CEM leukemia): > 100 µM
- TGI (MOLT-4 leukemia): > 100 µM
- TGI (SN12C renal): > 100 µM
- TGI (HS 578T breast): > 100 µM
- TGI (MDA-MB-435): > 100 µM
- TGI (OVCAR-3 ovarian): > 100 µM
- TGI (RPMI-8226 leukemia): > 100 µM
- TGI (SK-MEL-28 melanoma): > 100 µM
- TGI (NCI-H23 lung): > 100 µM
- TGI (786-0 renal): > 100 µM
- TGI (U251 CNS): > 100 µM
- TGI (SF-268 CNS): > 100 µM
- TGI (UACC-62 melanoma): > 100 µM
- TGI (HOP-62 NSCLC): > 100 µM
- TGI (MDA-N): > 100 µM
- TGI (A549 NSCLC): > 100 µM
- TGI (LOX IMVI melanoma): > 100 µM
- TGI (HT29 colon): > 100 µM
- TGI (OVCAR-4 ovarian): > 100 µM
- TGI (PC-3 prostate): > 100 µM
- TGI (M14 melanoma): > 100 µM
- TGI (SF-295 CNS): > 100 µM
- TGI (K-562 leukemia): > 100 µM
- TGI (SW-620 colon): > 100 µM
- TGI (OVCAR-5 ovarian): > 100 µM
- TGI (IGROV1 ovarian): > 100 µM
- TGI (NCI/ADR-RES ovarian): > 100 µM
- TGI (HCT-15 colon): > 100 µM
- TGI (HL-60(TB) leukemia): > 100 µM
- TGI (NCI-H522 lung): > 100 µM
- TGI (ACHN renal): > 100 µM
- TGI (UACC-257 melanoma): > 100 µM
- TGI (NCI-H460 lung): > 100 µM
- TGI (HCT-116 colon): > 100 µM
- TGI (SNB-75 CNS): > 100 µM
- TGI (TK-10 renal): > 100 µM
- TGI (SK-MEL-5 melanoma): > 100 µM
- TGI (NCI-H226 lung): > 100 µM
- TGI (EKVX NSCLC): > 100 µM
- TGI (SF-539 CNS): > 100 µM
- TGI (COLO 205 colon): > 100 µM
- TGI (BT-549 breast): > 100 µM
- TGI (MALME-3M melanoma): > 100 µM
- TGI (DU-145 prostate): > 100 µM
- TGI (MCF7 breast): > 100 µM
- TGI (CAKI-1 renal): > 100 µM
- TGI (SK-MEL-2 melanoma): > 100 µM
- TGI (HOP-92 NSCLC): > 100 µM
- TGI (MDA-MB-231 breast): > 100 µM
- TGI (KM12 colon): > 100 µM
- TGI (A498 renal): > 100 µM
- TGI (OVCAR-8 ovarian): > 100 µM
- TGI (T-47D breast): > 100 µM
- TGI (RXF 393 renal): > 100 µM
- TGI (SNB-19 CNS): > 100 µM

SMILES: Cc1c(C)n(-c2ccccc2)c2nc(S(C)(=O)=O)nc(S(C)(=O)=O)c12
- TGI (SK-OV-3 ovarian): 34.2 µM
- TGI (CCRF-CEM leukemia): 2.29 µM
- TGI (MOLT-4 leukemia): 2.49 µM
- TGI (SN12C renal): 33.8 µM
- TGI (HS 578T breast): > 85.5 µM
- TGI (MDA-MB-435): 3.56 µM
- TGI (OVCAR-3 ovarian): 3.02 µM
- TGI (RPMI-8226 leukemia): 4.94 µM
- TGI (SK-MEL-28 melanoma): 6.73 µM
- TGI (NCI-H23 lung): 23.3 µM
- TGI (786-0 renal): 2.55 µM
- TGI (U251 CNS): 11.2 µM
- TGI (SF-268 CNS): 31.1 µM
- TGI (UACC-62 melanoma): 17.6 µM
- TGI (HOP-62 NSCLC): 33.2 µM
- TGI (MDA-N): 3.43 µM
- TGI (A549 NSCLC): 30.4 µM
- TGI (LOX IMVI melanoma): 3.43 µM
- TGI (HT29 colon): 3.74 µM
- TGI (OVCAR-4 ovarian): 3.13 µM
- TGI (PC-3 prostate): 10.2 µM
- TGI (M14 melanoma): 3.1 µM
- TGI (SF-295 CNS): 31.1 µM
- TGI (K-562 leukemia): 2.95 µM
- TGI (SW-620 colon): 2.9 µM
- TGI (OVCAR-5 ovarian): 3.63 µM
- TGI (IGROV1 ovarian): 9.24 µM
- TGI (NCI/ADR-RES ovarian): 59.9 µM
- TGI (HCT-15 colon): 3.31 µM
- TGI (HL-60(TB) leukemia): 3.35 µM
- TGI (NCI-H522 lung): 3.59 µM
- TGI (ACHN renal): 2.91 µM
- TGI (UACC-257 melanoma): 3.16 µM
- TGI (NCI-H460 lung): 37.1 µM
- TGI (HCT-116 colon): 2.98 µM
- TGI (SNB-75 CNS): 34.5 µM
- TGI (TK-10 renal): 3.55 µM
- TGI (SK-MEL-5 melanoma): 27.1 µM
- TGI (HCC-2998 colon): 41.2 µM
- TGI (NCI-H226 lung): 47.4 µM
- TGI (EKVX NSCLC): 11.7 µM
- TGI (SF-539 CNS): 27 µM
- TGI (SR leukemia): 2.46 µM
- TGI (COLO 205 colon): 3.29 µM
- TGI (MALME-3M melanoma): 2.92 µM
- TGI (DU-145 prostate): 27.7 µM
- TGI (MCF7 breast): 2.79 µM
- TGI (CAKI-1 renal): 1.55 µM
- TGI (UO-31 renal): 3.23 µM
- TGI (SK-MEL-2 melanoma): 4.21 µM
- TGI (HOP-92 NSCLC): 3.2 µM
- TGI (MDA-MB-231 breast): 19.4 µM
- TGI (KM12 colon): 28.2 µM
- TGI (A498 renal): 28.9 µM
- TGI (OVCAR-8 ovarian): 4.94 µM
- TGI (T-47D breast): 5.52 µM
- TGI (RXF 393 renal): 2.75 µM
- TGI (SNB-19 CNS): 25.6 µM

Reference: PubChem BioAssay (NCI)
